Substitutions are numbered along the chain they refer to.

The target in one experiment is T1, wild-type 5-HT3 receptor (Mus musculus, UniProt P23979).
T1 sequence (P23979 24-483 isoform P23979-2 limits assumed): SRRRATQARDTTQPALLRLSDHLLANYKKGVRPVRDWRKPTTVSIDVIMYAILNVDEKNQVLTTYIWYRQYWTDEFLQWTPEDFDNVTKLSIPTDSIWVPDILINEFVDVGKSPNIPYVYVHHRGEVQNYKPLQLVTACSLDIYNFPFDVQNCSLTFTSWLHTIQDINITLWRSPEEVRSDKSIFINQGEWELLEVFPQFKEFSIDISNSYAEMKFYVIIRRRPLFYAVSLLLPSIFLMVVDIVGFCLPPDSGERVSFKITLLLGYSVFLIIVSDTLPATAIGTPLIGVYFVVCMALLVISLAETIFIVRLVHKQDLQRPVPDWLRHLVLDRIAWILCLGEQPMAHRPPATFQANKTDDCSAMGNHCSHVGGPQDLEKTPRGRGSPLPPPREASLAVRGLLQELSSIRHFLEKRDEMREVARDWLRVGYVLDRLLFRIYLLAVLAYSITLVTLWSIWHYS
The settings on record: maximum number of binding sites, n = 5.

The target in experiment [1] is T2, R344H mutant 5-HT3 receptor (Mus musculus, UniProt P23979, R349H).
T2 sequence (P23979 24-483 isoform P23979-2 R349H limits assumed): T1 sequence (P23979 24-483 isoform P23979-2 limits assumed) with R326H
The conditions noted are these: maximum number of binding sites, n = 9.

Experiment [2] has as its target T3, P391R mutant 5-HT3 receptor (Mus musculus, UniProt P23979, P402R).
T3 sequence (P23979 24-483 isoform P23979-2 P396R limits assumed): T1 sequence (P23979 24-483 isoform P23979-2 limits assumed) with P373R
The settings on record: maximum number of binding sites, n = 5.

In the case of `CN1C2CCCC1CC(NC(=O)c1nn(C)c3ccccc13)C2` (stereo not drawn) [[^3H]Granisetron], the Bmax turned out to be 567 ± 149 fmol/mg on wild-type 5-HT3 receptor, 853 ± 232 fmol/mg in experiment [1] and 353 ± 113 fmol/mg in experiment [2].

The values above are taken from publication PMC2649375 (Journal of molecular neuroscience : MN, 2006).
